Experimental data published in patent US12421253B2 (Mirati Therapeutics, Inc., priority 2020, dated 2025).

Key:
[1] = target: T1, KRas^WT (Homo sapiens, UniProt P01116); experiment: KRas binding assay (TR-FRET displacement of Cy5 labelled tracer)
T1 construct: […]; biotin (biotinylated); purchased Accelegan Inc
Experimental: (§1) The ability of a compound to bind to KRas was measured using a TR-FRET displacement assay. […] After a 60-minute incubation at room temperature, the reaction was measured using a BMG LABTECH CLARIO star Plus via TR-FRET. […] The POC values were fit to a 4-parameter IC50 equation and the IC50 value reported.

[2] = target: T2, KRas^G12S (Homo sapiens, UniProt P01116, G12S); experiment: as above
T2 construct: […]; biotin (biotinylated); purchased Accelegan Inc
Experimental: as §1

[3] = target: T3, KRas^G12V (Homo sapiens, UniProt P01116, G12V); experiment: as above
T3 construct: […]; biotin (biotinylated); purchased Accelegan Inc
T3 sequence (P01116 1-169 isoform P01116-2 G12V): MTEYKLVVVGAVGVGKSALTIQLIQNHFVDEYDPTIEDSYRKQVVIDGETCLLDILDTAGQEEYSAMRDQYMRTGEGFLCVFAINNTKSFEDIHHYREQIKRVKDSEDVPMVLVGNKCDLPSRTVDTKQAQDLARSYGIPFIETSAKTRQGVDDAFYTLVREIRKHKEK
Experimental: as §1

[4] = target: KRas^Q61H (Homo sapiens, UniProt P01116, Q61H); experiment: biochemical
KRas^Q61H, sequence (P01116 1-169 isoform P01116-2 Q61H): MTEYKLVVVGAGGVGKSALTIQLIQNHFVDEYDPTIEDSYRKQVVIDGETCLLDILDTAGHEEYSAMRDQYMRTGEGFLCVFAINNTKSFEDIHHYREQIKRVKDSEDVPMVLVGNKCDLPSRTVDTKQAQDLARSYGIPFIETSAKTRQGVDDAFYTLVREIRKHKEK
Experimental: as §1

[5] = target: KRas^G13D (Homo sapiens, UniProt P01116, G13D); experiment: biochemical
KRas^G13D, sequence (P01116 1-169 isoform P01116-2 G13D): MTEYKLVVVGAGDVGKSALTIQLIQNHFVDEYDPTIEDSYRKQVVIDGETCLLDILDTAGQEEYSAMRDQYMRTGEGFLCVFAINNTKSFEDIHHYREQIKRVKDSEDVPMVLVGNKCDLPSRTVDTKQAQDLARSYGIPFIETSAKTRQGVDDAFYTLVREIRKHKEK
Experimental: as §1

[6] = target: T4, KRas^G12A (Homo sapiens, UniProt P01116, G12A); experiment: KRas binding assay (TR-FRET displacement of Cy5 labelled tracer)
T4 construct: […]; biotin (biotinylated); purchased Accelegan Inc
T4 sequence (P01116 1-169 isoform P01116-2 G12A): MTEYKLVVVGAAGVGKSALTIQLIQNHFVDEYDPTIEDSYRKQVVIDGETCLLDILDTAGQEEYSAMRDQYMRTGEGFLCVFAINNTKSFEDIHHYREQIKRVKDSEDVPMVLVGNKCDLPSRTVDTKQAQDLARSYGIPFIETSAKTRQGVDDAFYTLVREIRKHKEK
Experimental: as §1

[7] = target: KRas^G12C (Homo sapiens, UniProt P01116, G12C); experiment: biochemical
KRas^G12C, sequence (P01116 1-169 isoform P01116-2 G12C): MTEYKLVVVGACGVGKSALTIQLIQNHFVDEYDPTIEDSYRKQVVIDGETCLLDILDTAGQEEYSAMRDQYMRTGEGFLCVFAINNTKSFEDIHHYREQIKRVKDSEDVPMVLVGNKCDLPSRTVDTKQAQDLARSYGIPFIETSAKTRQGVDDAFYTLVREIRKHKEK
Experimental: as §1

[8] = target: T5, KRas^G12D (Homo sapiens, UniProt P01116, G12D); experiment: KRas binding assay (TR-FRET displacement of Cy5 labelled tracer)
T5 construct: […]; biotin (biotinylated); purchased Accelegan Inc
T5 sequence (P01116 1-169 isoform P01116-2 G12D): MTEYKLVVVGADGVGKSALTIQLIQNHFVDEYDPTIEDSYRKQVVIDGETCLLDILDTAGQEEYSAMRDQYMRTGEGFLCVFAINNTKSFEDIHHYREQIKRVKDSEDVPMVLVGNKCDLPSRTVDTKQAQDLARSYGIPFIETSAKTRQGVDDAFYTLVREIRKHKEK
Experimental: as §1

[9] = target: T6, KRas^G12R (Homo sapiens, UniProt P01116, G12R); experiment: as above
T6 construct: […]; biotin (biotinylated); purchased Accelegan Inc
T6 sequence (P01116 1-169 isoform P01116-2 G12R): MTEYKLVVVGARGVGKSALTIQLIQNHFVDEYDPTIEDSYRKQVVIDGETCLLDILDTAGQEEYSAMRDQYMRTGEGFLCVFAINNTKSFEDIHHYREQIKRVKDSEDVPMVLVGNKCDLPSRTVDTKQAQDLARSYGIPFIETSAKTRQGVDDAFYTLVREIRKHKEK
Experimental: as §1

T2 sequence (P01116 1-169 isoform P01116-2 G12S): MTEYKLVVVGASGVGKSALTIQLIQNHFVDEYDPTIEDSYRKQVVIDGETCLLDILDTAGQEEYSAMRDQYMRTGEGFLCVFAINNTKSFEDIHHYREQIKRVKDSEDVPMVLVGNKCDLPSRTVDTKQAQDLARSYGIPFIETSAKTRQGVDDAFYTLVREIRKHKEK
T1 sequence (P01116 1-169 isoform P01116-2): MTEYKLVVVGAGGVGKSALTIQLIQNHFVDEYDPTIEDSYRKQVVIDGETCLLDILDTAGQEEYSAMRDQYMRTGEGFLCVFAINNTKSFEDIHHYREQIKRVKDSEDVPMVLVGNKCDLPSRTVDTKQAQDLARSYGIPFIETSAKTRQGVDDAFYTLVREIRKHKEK

Row | Structure (SMILES) | IC50 [1] | IC50 [2] | IC50 [3] | IC50 [4] | IC50 [5] | IC50 [6] | IC50 [7] | IC50 [8] | IC50 [9]
1 | CCc1cccc2cccc(N3CCc4c(nc(OCC56CCCN5CCC6)nc4N4C[C@@H]5C(=O)NC(=O)[C@@H]5C4)C3)c12 [Example 11, (3aR,6aS)-5-(7-(8-ethylnaphthalen-1-yl)-2-((tetrahydro-1H-pyrrolizin-7a(5H)-yl)methoxy)-5,6,7,8-tetrahydropyrido[3,4-d]pyrimidin-4-yl)tetrahydropyrrolo[3,4-c]pyrrole-1,3(2H,3aH)-dione] | 0.051 µM | 0.015 µM | 0.018 µM | 0.05 µM | 0.042 µM | 0.045 µM | 0.041 µM | 0.022 µM | 0.042 µM
2 | CCc1cccc2cccc(N3CCc4c(nc(OCC56CCCN5CCC6)nc4N4CCCC5(C4)NC(=O)NC5=O)C3)c12 (stereo not drawn) [Example 12, 7-(7-(8-ethylnaphthalen-1-yl)-2-((tetrahydro-1H-pyrrolizin-7a(5H)-yl)methoxy)-5,6,7,8-tetrahydropyrido[3,4-d]pyrimidin-4-yl)-1,3,7-triazaspiro[4.5]decane-2,4-dione] | ≤ 0.002 µM | ≤ 0.002 µM | ≤ 0.002 µM | ≤ 0.002 µM | ≤ 0.002 µM | ≤ 0.002 µM | ≤ 0.002 µM | 0.003 µM | ≤ 0.002 µM
3 | CCc1cccc2cccc(N3CCc4c(nc(OCC56CCCN5CCC6)nc4N4CCC(O)C(CO)CC4)C3)c12 (stereo not drawn) [Example 13, 1-(7-(8-ethylnaphthalen-1-yl)-2-((tetrahydro-1H-pyrrolizin-7a(5H)-yl)methoxy)-5,6,7,8-tetrahydropyrido[3,4-d]pyrimidin-4-yl)-5-(hydroxymethyl)azepan-4-ol] | 0.041 µM | 0.07 µM | 0.073 µM | 0.057 µM | 0.04 µM | 0.051 µM | 0.082 µM | 0.29 µM | 0.099 µM
4 | CCc1cccc2cccc(N3CCc4c(nc(OCC56CCCN5CCC6)nc4N4CCCCCC(S(C)(=O)=O)C4)C3)c12 (stereo not drawn) [Example 14, 7-(8-ethylnaphthalen-1-yl)-4-(3-(methylsulfonyl)azocan-1-yl)-2-((tetrahydro-1H-pyrrolizin-7a(5H)-yl)methoxy)-5,6,7,8-tetrahydropyrido[3,4-d]pyrimidine] | 0.119 µM | 0.171 µM | 0.112 µM | 0.135 µM | 0.118 µM | 0.145 µM | 0.173 µM | 0.256 µM | 0.233 µM
5 | CCc1cccc2cccc(N3CCc4c(nc(OCC56CCCN5CCC6)nc4N4CCCC5(CC(=O)N5)C4)C3)c12 (stereo not drawn) [Example 16, 6-(7-(8-ethylnaphthalen-1-yl)-2-((hexahydro-1H-pyrrolizin-7a-yl)methoxy)-5,6,7,8-tetrahydropyrido[3,4-d]pyrimidin-4-yl)-1,6-diazaspiro[3.5]nonan-2-one] | 0.066 µM | 0.045 µM | 0.018 µM | 0.055 µM | 0.065 µM | 0.045 µM | 0.037 µM | 0.063 µM | 0.028 µM
6 | CCc1cccc2cccc(N3CCc4c(nc(OCC56CCCN5CCC6)nc4N4CCOCC(C)(O)C4)C3)c12 (stereo not drawn) [Example 22, 4-(7-(8-ethylnaphthalen-1-yl)-2-((hexahydro-1H-pyrrolizin-7a-yl)methoxy)-5,6,7,8-tetrahydropyrido[3,4-d]pyrimidin-4-yl)-6-methyl-1,4-oxazepan-6-ol] | 0.105 µM | 0.089 µM | 0.071 µM | 0.095 µM | 0.101 µM | 0.093 µM | 0.072 µM | 0.068 µM | 0.123 µM
7 | CCc1cccc2cccc(N3CCc4c(nc(OCC56CCCN5CCC6)nc4NCc4ccc5nncn5c4)C3)c12 [Example 39, N-([1,2,4]triazolo[4,3-a]pyridin-6-ylmethyl)-7-(8-ethylnaphthalen-1-yl)-2-((hexahydro-1H-pyrrolizin-7a-yl)methoxy)-5,6,7,8-tetrahydropyrido[3,4-d]pyrimidin-4-amine] | 1.37 µM | 0.592 µM | 0.221 µM | 1.64 µM | 1.53 µM | 0.425 µM | 0.317 µM | 7.11 µM | 0.239 µM
8 | CCc1cccc2cccc(N3CCc4c(nc(OCC56CCCN5CCC6)nc4N4CC5CC(O)CC4C5)C3)c12 (stereo not drawn) [Example 41, 6-(7-(8-ethylnaphthalen-1-yl)-2-((hexahydro-1H-pyrrolizin-7a-yl)methoxy)-5,6,7,8-tetrahydropyrido[3,4-d]pyrimidin-4-yl)-6-azabicyclo[3.2.1]octan-3-ol] | 0.543 µM | 0.255 µM | 0.206 µM | 0.685 µM | 0.583 µM | 0.452 µM | 0.52 µM | 1.3 µM | 0.245 µM
9 | CCc1cccc2cccc(N3CCc4c(nc(OCC56CCCN5CCC6)nc4N4CCCC(O)(C(F)F)C4)C3)c12 (stereo not drawn) [Example 44, 3-(difluoromethyl)-1-(7-(8-ethylnaphthalen-1-yl)-2-((hexahydro-1H-pyrrolizin-7a-yl)methoxy)-5,6,7,8-tetrahydropyrido[3,4-d]pyrimidin-4-yl)piperidin-3-ol] | 0.191 µM | 0.202 µM | 0.2 µM | 0.226 µM | 0.163 µM | 0.202 µM | 0.232 µM | 0.162 µM | 0.308 µM
10 | CCc1cccc2cccc(N3CCc4c(nc(OCC56CCCN5CCC6)nc4N4CCC(c5[nH]ncc5N)C4)C3)c12 (stereo not drawn) [Example 46, 5-(1-(7-(8-ethylnaphthalen-1-yl)-2-((hexahydro-1H-pyrrolizin-7a-yl)methoxy)-5,6,7,8-tetrahydropyrido[3,4-d]pyrimidin-4-yl)pyrrolidin-3-yl)-1H-pyrazol-4-amine] | 1.82 µM | 0.611 µM | 0.232 µM | 2.23 µM | 2.86 µM | 0.448 µM | 0.401 µM | 6.75 µM | 0.277 µM
11 | CCc1cccc2cccc(N3CCc4c(nc(OCC56CCCN5CCC6)nc4N4CCCCCC4)C3)c12 [Example 49, 4-(azepan-1-yl)-7-(8-ethylnaphthalen-1-yl)-2-((hexahydro-1H-pyrrolizin-7a-yl)methoxy)-5,6,7,8-tetrahydropyrido[3,4-d]pyrimidine] | 0.579 µM | 0.364 µM | 0.184 µM | 0.703 µM | 0.662 µM | 0.317 µM | 0.273 µM | 0.465 µM | 0.167 µM
12 | CCc1cccc2cccc(N3CCc4c(nc(OCC56CCCN5CCC6)nc4N4Cc5ccnn5CC(O)C4)C3)c12 (stereo not drawn) [Example 50, 5-(7-(8-ethylnaphthalen-1-yl)-2-((hexahydro-1H-pyrrolizin-7a-yl)methoxy)-5,6,7,8-tetrahydropyrido[3,4-d]pyrimidin-4-yl)-5,6,7,8-tetrahydro-4H-pyrazolo[1,5-a][1,4]diazepin-7-ol] | 0.613 µM | 0.33 µM | 0.342 µM | 0.808 µM | 0.8 µM | 0.569 µM | 0.299 µM | 0.219 µM | 0.284 µM
13 | CCc1cccc2cccc(N3CCc4c(nc(OCC56CCCN5CCC6)nc4N4CCCn5nccc5C4)C3)c12 [Example 51, 4-(7,8-dihydro-4H-pyrazolo[1,5-a][1,4]diazepin-5(6H)-yl)-7-(8-ethylnaphthalen-1-yl)-2-((hexahydro-1H-pyrrolizin-7a-yl)methoxy)-5,6,7,8-tetrahydropyrido[3,4-d]pyrimidine] | 1.37 µM | 0.669 µM | 0.652 µM | 1.93 µM | 2.03 µM | 1.26 µM | 0.564 µM | 0.309 µM | 0.492 µM
14 | CCc1cccc2cccc(N3CCc4c(nc(OCC56CCCN5CCC6)nc4N4CC5CNC(=O)C5C4)C3)c12 (stereo not drawn) [Example 52, 5-(7-(8-ethylnaphthalen-1-yl)-2-((hexahydro-1H-pyrrolizin-7a-yl)methoxy)-5,6,7,8-tetrahydropyrido[3,4-d]pyrimidin-4-yl)hexahydropyrrolo[3,4-c]pyrrol-1(2H)-one] | 2.22 µM | 0.584 µM | 0.348 µM | 1.42 µM | 1.15 µM | 1.27 µM | 0.662 µM | 1.23 µM | 0.723 µM
15 | CCc1cccc2cccc(N3CCc4c(nc(OCC56CCCN5CCC6)nc4N4CCCC(c5ncn[nH]5)C4)C3)c12 (stereo not drawn) [Example 53, 4-(3-(1H-1,2,4-triazol-5-yl)piperidin-1-yl)-7-(8-ethylnaphthalen-1-yl)-2-((hexahydro-1H-pyrrolizin-7a-yl)methoxy)-5,6,7,8-tetrahydropyrido[3,4-d]pyrimidine] | 0.894 µM | 0.854 µM | 0.937 µM | 1.15 µM | 1.18 µM | 0.548 µM | 0.741 µM | 2.72 µM | 0.397 µM
16 | CCc1cccc2cccc(N3CCc4c(nc(OCC56CCCN5CCC6)nc4N4CCCCCCC4)C3)c12 [Example 54, 4-(azocan-1-yl)-7-(8-ethylnaphthalen-1-yl)-2-((hexahydro-1H-pyrrolizin-7a-yl)methoxy)-5,6,7,8-tetrahydropyrido[3,4-d]pyrimidine] | 0.943 µM | 0.924 µM | 0.707 µM | 1.23 µM | 1.07 µM | 0.767 µM | 0.755 µM | 1.46 µM | 0.663 µM
